Measurements as given in paper PMC9325410 (Clinical Pharmacology and Therapeutics, 2022).
Where two headings read alike, the source gives them in different places.

How the values were obtained:
[1] = system: OATP1B1/1B3; settings: ref 17 (pitavastatin), 19 (CP-I); cited from earlier work
[2] = system: OATP1B1/1B3; assay type: in vivo, human
[3] = Renal clearance; assay type: in vivo, human
[4] = system: OATP1B1/1B3; settings: cited from earlier work
[5] = after 20 mg and 75 mg CysA doses
[6] = +CysA 20 mg, 1 h before probe cocktail
[7] = otherwise (conditions other than rosuvastatin with 1-hour interval)

Row | Compound | hepatic extraction (PBPK model analysis) [1] | AUCR: AUC0-24 Geometric mean ratio +CysA/Control (90% CI) [2, 6] | AUCR: AUC0-24 Geometric mean ratio +CysA/Control (90% CI) ([2]; +CysA 75 mg (-1hr)) | AUCR: AUC0-24 Geometric mean ratio +CysA/Control (90% CI) ([2]; +CysA 75 mg (-3hr)) | change of CLR by CysA (in words) [3, 7] | other results
1 | coproporphyrin I [CP-I] | 0.28 |  |  |  |  | 
2 | O=C(O)C[C@H](O)C[C@H](O)/C=C/c1c(C2CC2)nc2ccccc2c1-c1ccc(F)cc1 [pitavastatin] | 0.43 | 1.64 | 3.46 | 2.38 |  | 
3 | CC1=C(CCC(=O)O)c2cc3nc(cc4[nH]c(cc5[nH]c(cc1n2)c(C)c5CCC(=O)O)c(CCC(=O)O)c4C)C(CCC(=O)O)=C3C.Cl.Cl [CP-III, Coproporphyrin III dihydrochloride] |  |  |  |  |  | reduction of CLR by CysA ([3]; CysA 75 mg): 24%
4 | CC(C)c1nc(N(C)S(C)(=O)=O)nc(-c2ccc(F)cc2)c1/C=C/[C@@H](O)C[C@@H](O)CC(=O)O [rosuvastatin] |  | 1.39 | 2.16 | 1.81 | no significant change | change of CLR by CysA (in words) ([3]; CysA administered with a 1-hour interval): decreased
5 | CC[C@@H]1NC(=O)[C@H]([C@H](O)[C@H](C)C/C=C/CO)N(C)C(=O)[C@H](C(C)C)N(C)C(=O)[C@H](CC(C)C)N(C)C(=O)[C@H](CC(C)C)N(C)C(=O)[C@@H](C)NC(=O)[C@H](C)NC(=O)[C@H](CC(C)C)N(C)C(=O)[C@H](C(C)C)NC(=O)[C@H](CC(C)C)N(C)C(=O)CN(C)C1=O [AM1, Cyclosporin AM1] |  |  |  |  |  | inhibition of OATP1B1/1B3 (in words) [4]: inhibitor; Plasma concentrations relative to CysA (times lower) [5]: 10 times
6 | CCCCC(=O)N(Cc1ccc(-c2ccccc2-c2nnn[nH]2)cc1)[C@H](C(=O)O)C(C)C [valsartan] |  | 1.43 | 1.77 | 1.85 | no significant change | 
